SMILES strings stand for the structures.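 Five concentrations, 48 hours, 96-well plates. GI50: concentration for 50% inhibition of growth. Definition used: TGI = concentration required for complete inhibition of growth.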

Among the test systems are A498 renal; HT29 colon; MOLT-4 leukemia; KM12 colon; HL-60(TB) leukemia; CCRF-CEM leukemia; OVCAR-4 ovarian; NCI-H226 lung; COLO 205 colon; SN12C renal.
What all share (assay): inhibition of tumour cell growth, NCI panel, 48 h

For `CNCC(=O)NC(CO)C(=O)NC(CO)C(=O)NC1C(C(N)=O)OC(n2ccc(N)nc2=O)C(O)C1O` (stereo not given), the GI50 in the test with A498 renal was 13 µg/mL; with HT29 colon, 25.9 µg/mL; in the test on MOLT-4 leukemia it was greater than 50 µg/mL; in the test on KM12 colon it was 20.3 µg/mL; in the test on HL-60(TB) leukemia, greater than 50 µg/mL; in the test with CCRF-CEM leukemia it was greater than 50 µg/mL. Further, the GI50 is 0.495 µg/mL in the test on OVCAR-4 ovarian, 1.65 µg/mL in the test with NCI-H226 lung, greater than 50 µg/mL in the test with COLO 205 colon and 9.89 µg/mL in the test on SN12C renal. The TGI with A498 renal, in the test on HT29 colon, with MOLT-4 leukemia, in the test with KM12 colon, with HL-60(TB) leukemia and with CCRF-CEM leukemia was greater than 50 µg/mL in each case. Also, the TGI in the test with OVCAR-4 ovarian was 3.41 µg/mL; with NCI-H226 lung, 13.9 µg/mL; in the test on COLO 205 colon, greater than 50 µg/mL; with SN12C renal it was greater than 50 µg/mL.

Regarding `COc1ccc(NC(=O)c2oc3cc(O)ccc3c(=O)c2C)c([N+](=O)[O-])c1`, the TGI in the test with A498 renal, in the test with HT29 colon, in the test with MOLT-4 leukemia, in the test with KM12 colon, with HL-60(TB) leukemia and in the test on CCRF-CEM leukemia was greater than 100 µM in each case. Also, the TGI in the test with OVCAR-4 ovarian, in the test with NCI-H226 lung, in the test on COLO 205 colon and in the test on SN12C renal was greater than 100 µM throughout.

As to `Nn1c(-c2cccc(Cl)c2)nc2ccccc2c1=O`, the TGI in the test on A498 renal, in the test with HT29 colon, in the test on MOLT-4 leukemia, with KM12 colon, with HL-60(TB) leukemia and in the test with CCRF-CEM leukemia was greater than 100 µM throughout. In addition, the TGI in the test on OVCAR-4 ovarian, in the test on NCI-H226 lung, in the test on COLO 205 colon and in the test with SN12C renal was greater than 100 µM each time.

On to `CCCCCCCCC(C)CCCCCCCCC(=O)OCC(COP(=O)([O-])OCC[N+](C)(C)C)OC(=O)CCCCCCCCC(C)CCCCCCCC` (stereo not given), for which the TGI with A498 renal, in the test with HT29 colon, with MOLT-4 leukemia, with KM12 colon, in the test on HL-60(TB) leukemia and with CCRF-CEM leukemia was greater than 100 µM throughout. For the same compound, the TGI in the test on OVCAR-4 ovarian, with NCI-H226 lung, in the test with COLO 205 colon and with SN12C renal was greater than 100 µM in each case.

As to `O=C(N/N=C/c1cc(Cl)ccc1O)c1ccccc1Nc1ccnc(C(F)(F)F)c1`, the GI50 in the test on A498 renal was 0.585 µM; in the test on HT29 colon, 1.95 µM; in the test on MOLT-4 leukemia it was 0.241 µM; in the test on KM12 colon, 0.604 µM; in the test on HL-60(TB) leukemia, 0.225 µM; with CCRF-CEM leukemia it was 0.127 µM. The GI50 with OVCAR-4 ovarian was 0.299 µM; in the test on NCI-H226 lung it was 0.769 µM; with COLO 205 colon, 0.36 µM; in the test with SN12C renal it was 1.23 µM. Further, the TGI came out at 7.9 µM in the test with A498 renal; 18.3 µM in the test on HT29 colon; 6.27 µM in the test with MOLT-4 leukemia; 11.5 µM in the test on KM12 colon; 0.937 µM in the test on HL-60(TB) leukemia; 1.51 µM in the test on CCRF-CEM leukemia. For the same compound, the TGI with OVCAR-4 ovarian was 35 µM; in the test with NCI-H226 lung it was 7.71 µM; with COLO 205 colon, 13 µM; in the test with SN12C renal, 10.2 µM.

As to `O=C(NCCCl)Nc1ccccc1`, the TGI with A498 renal, in the test on HT29 colon, with MOLT-4 leukemia, in the test with KM12 colon, with HL-60(TB) leukemia and in the test on CCRF-CEM leukemia was greater than 100 µM in each case. The TGI in the test on OVCAR-4 ovarian, in the test on NCI-H226 lung, with COLO 205 colon and in the test on SN12C renal was greater than 100 µM in each case.

As to `O=c1cc(-c2ccccc2)oc2cc(OCCCCCN3CCOCC3)cc(O)c12`, the GI50 was 33.7 µM in the test with A498 renal; 40.3 µM with HT29 colon; 99.7 µM with MOLT-4 leukemia; greater than 100 µM in the test with KM12 colon; 71 µM in the test with HL-60(TB) leukemia; 94.5 µM with CCRF-CEM leukemia. In addition, the GI50 with OVCAR-4 ovarian, with NCI-H226 lung, with COLO 205 colon and in the test on SN12C renal was greater than 100 µM in each case. The TGI in the test on A498 renal was 82.9 µM; in the test on HT29 colon, greater than 100 µM; in the test with MOLT-4 leukemia it was greater than 100 µM; in the test on KM12 colon, greater than 100 µM; in the test with HL-60(TB) leukemia it was greater than 100 µM; in the test on CCRF-CEM leukemia, greater than 100 µM. Further, the TGI in the test with OVCAR-4 ovarian, in the test on NCI-H226 lung, in the test on COLO 205 colon and in the test on SN12C renal was greater than 100 µM throughout.

Consider `O=C1CC(Cc2n[nH]c3c2CCCC3)CC(=O)N1`, for which the TGI in the test on A498 renal, in the test on HT29 colon, in the test with MOLT-4 leukemia, in the test with KM12 colon, in the test on HL-60(TB) leukemia and with CCRF-CEM leukemia was greater than 100 µM in each case. In addition, the TGI in the test on OVCAR-4 ovarian, in the test with NCI-H226 lung, in the test with COLO 205 colon and with SN12C renal was greater than 100 µM each time.

As to `CCC[CH2][Sn]([CH2]CCC)([O]C(=O)c1cc(F)ccc1F)[O]C(=O)c1cc(F)ccc1F`, the GI50 in the test on A498 renal is 1.25 µM; in the test on HT29 colon, 1.68 µM; in the test with MOLT-4 leukemia, 0.347 µM; in the test on KM12 colon, 1.6 µM; with HL-60(TB) leukemia, 0.506 µM; with CCRF-CEM leukemia, 0.257 µM. Also, the GI50 was 1.58 µM in the test on OVCAR-4 ovarian, 1.56 µM in the test with NCI-H226 lung, 1.12 µM in the test with COLO 205 colon and 1.16 µM in the test with SN12C renal. Besides, the TGI with A498 renal was 2.57 µM; with HT29 colon, 3.17 µM; with MOLT-4 leukemia, 2.01 µM; in the test with KM12 colon, 3.28 µM; in the test on HL-60(TB) leukemia, 3.09 µM; in the test on CCRF-CEM leukemia, 1.25 µM. For the same compound, the TGI worked out at 2.95 µM in the test with OVCAR-4 ovarian, 2.92 µM with NCI-H226 lung, 2.32 µM with COLO 205 colon and 2.39 µM in the test on SN12C renal.

These data come from PubChem BioAssay (NCI).
